{
  "source": "paper PMC7513592",
  "about": "(RSC Medicinal Chemistry, 2020)",
  "key": {"YFP-TRPV6": {"target": "T1, YFP-TRPV6 (Homo sapiens, UniProt Q9H1D0)", "T1 construct": "expressed in transfected cells; host or cells: HEK293 (DSMZ), transient (TransFectin)", "T1 sequence (Q9H1D0 41-765 limits assumed)": "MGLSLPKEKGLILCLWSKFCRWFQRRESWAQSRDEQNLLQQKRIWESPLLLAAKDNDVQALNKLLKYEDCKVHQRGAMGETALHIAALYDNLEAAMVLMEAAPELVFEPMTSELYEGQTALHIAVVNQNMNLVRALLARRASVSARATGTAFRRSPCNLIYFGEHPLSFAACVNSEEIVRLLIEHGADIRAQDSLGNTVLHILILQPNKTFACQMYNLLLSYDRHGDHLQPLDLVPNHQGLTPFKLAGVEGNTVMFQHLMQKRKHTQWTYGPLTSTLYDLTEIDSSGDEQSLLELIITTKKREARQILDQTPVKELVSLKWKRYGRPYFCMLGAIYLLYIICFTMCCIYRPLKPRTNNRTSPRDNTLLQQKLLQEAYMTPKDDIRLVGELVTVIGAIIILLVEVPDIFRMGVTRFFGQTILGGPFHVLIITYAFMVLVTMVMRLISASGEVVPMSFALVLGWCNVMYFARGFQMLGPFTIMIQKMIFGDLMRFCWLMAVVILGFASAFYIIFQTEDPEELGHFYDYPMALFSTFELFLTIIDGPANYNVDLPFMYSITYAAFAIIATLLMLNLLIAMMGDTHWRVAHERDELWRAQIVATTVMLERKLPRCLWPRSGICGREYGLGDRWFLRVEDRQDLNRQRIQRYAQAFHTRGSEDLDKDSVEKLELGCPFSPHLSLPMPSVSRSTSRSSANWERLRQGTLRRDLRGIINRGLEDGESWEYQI", "assay": "Whole-cell electrophysiology on YFP-TRPV6 transfected HEK293 cells", "format": "cell-based", "conditions": "10 mM Ca2+, read-out: inhibition of TRPV6 current densities", "experimental": "Electrophysiological experiments on YFP-TRPV6 transiently transfected HEK293 cells confirmed the activity of 39 on TRPV6. Initially, 10 mM Ca^2+ solution was applied and after the currents reached a plateau, the inhibitors at 0.1 and 10 μM were added. […] In comparison to the previously described 1, the inhibition by 39 occurred at a slower rate and was less pronounced.\nHEK293 cells (DSMZ, Germany) were cultivated in DMEM medium containing 10% FCS, 100 μg/ml streptomycin and 100 U/ml penicillin. 24 h before the experiments, a transient transfection with the peYFP-C1 TRPV6 plasmid was performed by utilising TransFectinTM Lipid Reagent (Bio-Rad).\nElectrophysiological experiments were conducted at room temperature (20 - 24°C) in the whole-cell configuration with an Ag/AgCl reference electrode. Voltage ramps over a time period of 200 ms from -90 to +90 mV were performed every 5 s with a holding potential of 50 mV. The internal pipette solution consisted of 145 mM Cs-methanesulfonate, 8 mM NaCl, 5 mM MgCl2, 10 mM HEPES and 20 mM EGTA, pH 7.2. The extra cellular solution (10 mM Ca2+) contained: 145 mM NaCl, 5 mM CsCl, 1 mM MgCl 2, 10 mM HEPES, 10 mM glucose and 10 mM CaCl 2, pH 7.4. The leak-correction of the currents were conducted by subtraction of the remaining leak currents after La 3+ bock. The liquid junction potential was determined as 12 mV, though applied voltages were not corrected. […]"}, "HEK-hTRPV6 cells": {"tested_on": "HEK-hTRPV6 cells", "format": "cell-based, human", "conditions": "10 μM, HEK-hTRPV6, 24 h"}},
  "data": [
    {"smiles": "O=c1ccc(CN2CCN([C@H]3CC[C@@](O)(c4cccc(C(F)(F)F)c4)CC3)CC2)c[nH]1", "note": "[compound 39]", "values": [
      {"measurement": "inhibition at 0.1 µM", "setting": "YFP-TRPV6; 0.1 μM", "result": "30.8 ± 5.1", "unit": "%"},
      {"measurement": "inhibition at 10 µM", "setting": "YFP-TRPV6; 10 μM", "result": "88.2 ± 2", "unit": "%"},
      {"measurement": "effect on Cd2+ toxicity", "setting": "HEK-hTRPV6 cells", "result": "significantly reduced the toxic effect"}
    ]}
  ]
}
